Source: patent US7491714B2 (dated 2009)

SMILES | melting point [°C]
COc1ccc2nccc([C@@H]3CN(CCCNS(=O)(=O)c4ccc5c(c4)NC(=O)CCS5)C(=O)O3)c2c1 | 128 to 130
COc1ccc2nccc([C@@H]3CN(CCCNS(=O)(=O)c4ccc5c(c4)NC(=O)CO5)C(=O)O3)c2c1 | 150 to 155
